From patent publication US5606037A, “Processes antineoplastic heteronaphthoquinones” (BioChem Pharma Inc., priority 1995, dated 1997)
Where a name gives a salt, the structure may show the parent alone.

Tests used:
[1] = literature; cited from earlier work
[2] = literature; cited from earlier work; remark: listed apart in the source
MCF-7 = test: In vitro cytotoxicity, MCF-7; type: cell-based
Method: (§1) The microculture tetrazolium assay was used to test in vitro cytotoxicity. This assay is described in Plumb, J. A. et al., 1989 Cancer Research 49, 4435-4440, which is herein incorporated by reference. The cytotoxicity of compounds towards tumor cells is measured in vitro using the assay. This assay method is based upon the ability of live, but not dead cells to reduce the yellow water soluble dye 3-(4,5-dimethylthiazol-2-yl)-2,5-diphenyltetrazolium bromide (MTT) to its water insoluble purple formazan product.
(§2) Cells are plated out in 100 μl of culture medium in the microtiter plates at a density of around 1,500-4,000 cells per well. The plates are incubated overnight to allow the cells to become adherent after which the test compound is added (100 μl of appropriate dilution per well). The cells are incubated with test compound at 37° C. for 48 h after which the compound is replaced with fresh medium. After a further 48 h incubation at 37° C., 50 μl of MTT solution (2 mg/ml) is added to each well. The plates are incubated in the dark for 4 h at 37° C. after which the medium is removed. The MTT formazan product is extracted from the cells by the addition of 200 μl DMSO followed by 50 μl of Sorensen's buffer. The plates are shaken briefly and the absorbance at 570 nm is read using a Molecular Devices UV max plate reader. […]

MCF-7/ADR = test: In vitro cytotoxicity, MCF-7/ADR; type: cell-based
Method: as §1, §2

MAT-B = test: In vitro cytotoxicity, MAT-B; type: cell-based; conditions: read-out: IC50 MAT-B
Method: as §1, §2

MAT-B/ADR = test: In vitro cytotoxicity, MAT-B/ADR; type: cell-based; conditions: read-out: IC50 MAT-B/ADR
Method: as §1, §2

[3] = test system: SKOV3 (Ovarian adenocarcinoma); test: In vitro cytotoxicity, microculture tetrazolium (MTT) assay, SKOV3; type: cell-based, Human; conditions: Homo sapiens, SK-OV-3; SKOV3 ovarian adenocarcinoma; 48 h with compound, further 48 h, MTT; Table 1
Procedure, shortened: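 Cells plated overnight, then exposed to compound (1:3 dilutions, 100 μM to 1.7 nM, quadruplicate) 48 h at 37 °C, followed by 48 h in fresh medium. MTT 4 h, formazan extracted in DMSO/Sorensen's buffer pH 10.5, A570; four-parameter logistic fit on 0–100% survival scale.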

[4] = test system: SKVLB (Ovarian; multidrug resistant); test: In vitro cytotoxicity, microculture tetrazolium (MTT) assay, SKVLB; type: cell-based, Human; conditions: Homo sapiens; SKVLB multidrug resistant ovarian; 48 h with compound, further 48 h, MTT; Table 1
Procedure, shortened: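 Multidrug-resistant SKVLB ovarian cells, 1,500–4,000 per well, exposed to compound (1:3 dilutions, 100 μM to 1.7 nM, quadruplicate) for 48 h at 37 °C, then 48 h in fresh medium. Viability by MTT reduction, formazan read at 570 nm; four-parameter logistic fit on a 0–100% survival scale.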

[5] = test system: T47D (Ductal carcinoma of breast); test: In vitro cytotoxicity, microculture tetrazolium (MTT) assay, T47D; type: cell-based, Human; conditions: Homo sapiens, 48 h with compound, further 48 h, Table 1
Procedure, shortened: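 Adherent cells (1,500-4,000/well) were exposed to compound in 1:3 dilutions from 100 μM to 1.7 nM, in quadruplicate, for 48 h at 37° C, followed by 48 h in fresh medium. MTT formazan was read at 570 nm, and data were fitted by four-parameter logistic on a 0-100% survival scale.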

Lox (Melanoma) = test: In vitro cytotoxicity, microculture tetrazolium (MTT) assay, LOX; type: cell-based, Human; conditions: Homo sapiens, 48 h with compound, further 48 h, Table 1
Procedure, shortened: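 LOX melanoma cells, 1,500–4,000 per well, exposed to compound (1:3 dilutions, 100 μM to 1.7 nM) for 48 h at 37° C., then 48 h in fresh medium. MTT reduction read at 570 nm; four-parameter logistic fit normalized to 0–100% survival.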

[6] = test system: HT 29 (Colon adenocarcinoma); test: In vitro cytotoxicity, microculture tetrazolium (MTT) assay, HT29; type: cell-based, Human; conditions: Homo sapiens, HT-29, 48 h with compound, further 48 h, Table 1
Procedure, shortened: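 HT29 cells exposed to compound (1:3 series, 100 μM to 1.7 nM, quadruplicate) for 48 h at 37 °C, then 48 h in fresh medium. Viability by MTT reduction, formazan absorbance at 570 nm; four-parameter logistic fit on 0-100% survival scale.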

VLB/OV3 = test: Resistance ratio of SKVLB over SKOV3 cytotoxicity (VLB/OV3); type: cell-based, Human; conditions: ratio SKVLB to SKOV3; Table 1; 2880 min
Method: as §1
SKOV3 (Ovarian adenocarcinoma)--provided by Dr. V. Ling, Ontario Cancer Institute.
SKVLB (Ovarian; multidrug resistant)--Dr. V. Ling, Ontario Cancer Institute.
For each assay, doxorubicin is included as an inter-assay standard. This allows us to monitor the behaviour of the assay in general, and in particular, to check that the SKVLB line has maintained its resistant phenotype.
Cells are plated out in 100 μl of culture medium in the microtiter plates at a density of around 1,500-4,000 cells per well. The plates are incubated overnight to allow the cells to become adherent after which the test compound is added (100 μl of appropriate dilution per well). The cells are incubated with test compound at 37° C. for 48 h after which the compound is replaced with fresh medium. After a further 48 h incubation at 37° C., 50 μl of MTT solution (2 mg/ml) is added to each well. The plates are incubated in the dark for 4 h at 37° C. after which the medium is removed. The MTT formazan product is extracted from the cells by the addition of 200 μl DMSO followed by 50 μl of Sorensen's buffer. The plates are shaken briefly and the absorbance at 570 nm is read using a Molecular Devices UV max plate reader. Curves are fit to the MTT assay data using a four parameter logistic equation, and the data are normalized to fit a 0% to 100% survival scale.

In the case of `C[C@@H]1O[C@@H](CC(=O)O)CC2=C1C(=O)c1c(O)cccc1C2=O` [nanaomycin A], the “antibacterial as well as antifungal activity” value [1] is given as “potent antibacterial as well as antifungal activity”.

For `COC(=O)C1CC2=C(C(=O)c3c(cc4ccccc4c3O)C2=O)C(O[C@H]2C[C@H](NC(=O)C(F)(F)F)[C@H](O)[C@H](C)O2)O1` (stereo partly shown) [pyranoanthraquinone (H)], the antitumor activity [2] is given as “found to possess antitumor activity”.

For `CC1O[C@H]2CC(=O)O[C@H]2C2=C1C(=O)c1c(O)c3c(c(O)c1C2=O)[C@H]1C[C@@H](O)[C@]3(O)[C@@H](C)O1` (stereo partly shown) [Granaticin], the antitumor activity [2] is listed as “reported to show antitumor activity”.

In the case of `CC(=O)[C@H]1CC2=C(C(=O)c3ccccc3C2=O)[C@H](OC2C[C@H](NC(=O)C(F)(F)F)[C@H](O)[C@H](C)O2)O1` (stereo partly drawn) [BCH1146, (1'S,1S,3R)-Methyl (5,10-dioxo-1-(2',3',6'-trideoxy-3'-trifluoroacetamido-4'-hydroxy-L-lyxohexopyranose)-3,4,5,10-tetrahydronaphtho [2,3-C]pyran-3-yl) ketone], the “potency relative to adriamycin” value (MCF-7; breast cancer, MCF-7) is reported as “less potent than adriamycin” and the “effect in sensitive versus adriamycin resistant cell line” value (MCF-7/ADR; breast cancer, MCF-7) is reported as “nearly as effective in the sensitive and adriamycin resistant cell line”.

For `CC1OC2OC(=O)OC2C2=C1C(=O)c1c(O)cccc1C2=O` (stereo not shown) [kalafungin], the “antibacterial as well as antifungal activity” value [1] is listed as “potent antibacterial as well as antifungal activity”.

With `COc1cccc2c1C(=O)c1c(O)c3c(c(O)c1C2=O)C[C@@](O)(C(=O)CO)C[C@@H]3O[C@H]1C[C@H](N)[C@H](O)[C@H](C)O1` [Adriamycin, reference compound] the IC50 (MCF-7; Homo sapiens, MCF7, read-out: IC50 MCF-7) was 0.005 µM, the IC50 (MCF-7/ADR; Homo sapiens, NCI/ADR-RES, read-out: IC50 MCF-7/ADR) was 6.5 µM and the IC50 (MAT-B) was 0.0046 µM. It also gave an IC50 (MAT-B/ADR) of 2.5 µM.

With `CC(=O)C1CC2=C(C(=O)c3ccccc3C2=O)C(OCC2CCCCN2)O1` (racemic) [BCH2069, Methyl-(1-O-[2'-piperidinemethanol]-5,10-dioxo-3,4,5,10-tetrahydronaphthaleno-[2,3-c]pyran-3-yl) ketone, racemic, hydrochloride] the IC50 [3] was 0.0494 µM, the IC50 [4] was 0.083 to 0.483 µM and the IC50 [5] was 1.11 µM. For the same compound, the IC50 (Lox (Melanoma)) was 0.0903 µM, the IC50 [6] was 0.35 µM and the VLB/OV3 (VLB/OV3) was 2-9.78.
